In brackets after ≈: the same amount, converted by molar mass.
Experiments:
[1] = Inhibition of NOX in fMLP-induced PMN cells assessed as ROS production
Daoy = test: Cytotoxicity against human DaOY cells after 3 days by MTT assay; format: functional; conditions: 72 h, read-out: ED50 (the source's name)
HEp-2 = test: Cytotoxicity against human Hep2 cells after 3 days by MTT assay; format: functional; conditions: HEp-2, 72 h, read-out: ED50 (the source's name)
HeLa = test: Cytotoxicity against human HeLa cells after 3 days by MTT assay; format: functional; conditions: 72 h, read-out: ED50 (the source's name)
MCF7 = test: Cytotoxicity against human MCF7 cells after 3 days by MTT assay; format: functional; conditions: MCF7, 72 h, read-out: ED50 (the source's name)
[2] = target: T1, Nitric oxide synthase, inducible (Mus musculus, UniProt P29477); test: Inhibition of iNOS in mouse BV2 microglial cells assessed as NO production; format: cell-based
T1 sequence (P29477 whole entry): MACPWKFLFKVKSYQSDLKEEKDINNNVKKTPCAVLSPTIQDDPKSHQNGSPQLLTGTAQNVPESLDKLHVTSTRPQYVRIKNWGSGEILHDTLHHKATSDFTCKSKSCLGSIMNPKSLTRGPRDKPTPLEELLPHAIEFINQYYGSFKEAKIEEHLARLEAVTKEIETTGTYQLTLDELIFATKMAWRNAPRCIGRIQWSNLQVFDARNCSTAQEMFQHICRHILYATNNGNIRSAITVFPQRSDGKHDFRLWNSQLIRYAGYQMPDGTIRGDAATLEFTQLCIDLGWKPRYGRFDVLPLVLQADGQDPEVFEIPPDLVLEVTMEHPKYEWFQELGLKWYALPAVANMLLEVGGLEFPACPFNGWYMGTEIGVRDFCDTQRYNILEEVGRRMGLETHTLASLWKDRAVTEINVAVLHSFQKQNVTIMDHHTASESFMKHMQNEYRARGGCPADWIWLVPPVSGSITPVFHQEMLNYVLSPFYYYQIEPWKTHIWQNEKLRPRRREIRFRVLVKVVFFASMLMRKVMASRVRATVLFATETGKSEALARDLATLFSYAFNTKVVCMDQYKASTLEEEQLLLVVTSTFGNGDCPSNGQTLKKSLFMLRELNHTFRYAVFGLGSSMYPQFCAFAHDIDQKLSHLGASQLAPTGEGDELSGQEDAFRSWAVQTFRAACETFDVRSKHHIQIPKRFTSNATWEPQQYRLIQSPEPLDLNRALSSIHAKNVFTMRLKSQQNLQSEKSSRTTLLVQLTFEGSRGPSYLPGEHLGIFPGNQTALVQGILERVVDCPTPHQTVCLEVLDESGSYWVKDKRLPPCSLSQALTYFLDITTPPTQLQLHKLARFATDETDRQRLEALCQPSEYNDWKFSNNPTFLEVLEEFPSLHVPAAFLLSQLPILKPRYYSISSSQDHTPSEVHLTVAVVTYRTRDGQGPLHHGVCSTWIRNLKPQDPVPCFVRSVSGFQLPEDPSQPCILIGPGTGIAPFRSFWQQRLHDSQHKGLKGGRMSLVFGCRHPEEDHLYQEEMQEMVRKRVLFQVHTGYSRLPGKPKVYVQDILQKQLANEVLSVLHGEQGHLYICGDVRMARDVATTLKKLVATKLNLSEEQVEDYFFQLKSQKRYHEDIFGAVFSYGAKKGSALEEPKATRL

[3] = Inhibition of mouse NOX activity in NADPH-induced mouse BV2 microglial cells assessed as ROS production; conditions: BV-2

In the case of `CC(C)[C@@H](C)/C=C/[C@@H](C)[C@H]1CC[C@@H]2[C@]1(C)CC[C@H]1[C@]23C=C[C@]2(C[C@@H](O)CC[C@]12C)OO3` [ERGOSTEROL PEROXIDE], the IC50 [1] is reported as 20.3 µM.

For `COc1cc(C)c(OC)c2c1OCO2`, the IC50 [1] was 19.9 µM, the EC50 (Daoy) was > 20 µg/mL and the EC50 (HEp-2) was > 20 µg/mL. The EC50 (HeLa) was > 20 µg/mL and the EC50 (MCF7) was > 20 µg/mL.

Work on `C=C(C)C#Cc1c(OC)cc(OC)c(OC)c1C` [ANTROCAMPHIN A] yielded an IC50 [1] of 15.1 µM, an EC50 (Daoy) of 5.9 µg/mL (≈ 24 µM) and an EC50 (HEp-2) of 10.5 µg/mL (≈ 42.6 µM). For the same molecule, the IC50 [2] was 7.2 µM, the EC50 (HeLa) was 6.9 µg/mL (≈ 28 µM) and the EC50 (MCF7) was 3.4 µg/mL (≈ 13.8 µM). The IC50 [3] was 50.1 µM.

With `C=C(CC[C@@H](C)[C@H]1CC[C@H]2C3=C(C(=O)C[C@]12C)[C@@]1(C)CCC(=O)[C@@H](C)[C@@H]1CC3=O)C(C)C(=O)OC` (stereo not given in full) [ZHANKUIC ACID A METHYL ESTER] the IC50 [1] was 8.4 µM, the EC50 (Daoy) was > 20 µg/mL and the EC50 (HEp-2) was > 20 µg/mL. The IC50 [2] was 0.6 µM, the EC50 (HeLa) was > 20 µg/mL and the EC50 (MCF7) was > 20 µg/mL.

For `OC1O[C@@H](c2ccc3c(c2)OCO3)[C@@H]2CO[C@@H](c3ccc4c(c3)OCO4)[C@H]12` (stereo not given in full) [4-HYDROXYSESAMIN], the EC50 (Daoy) was > 20 µg/mL, the EC50 (HEp-2) was > 20 µg/mL and the EC50 (HeLa) was > 20 µg/mL. The EC50 (MCF7) was > 20 µg/mL.

With `C=C(CC[C@@H](C)[C@H]1CC[C@H]2C3=C(C(=O)C[C@]12C)[C@@]1(C)CC[C@@H](O)[C@@H](C)[C@@H]1CC3=O)C(C)C(=O)O` (stereo not given in full) [ZHANKUIC ACID B] the EC50 (Daoy) was > 20 µg/mL, the EC50 (HEp-2) was > 20 µg/mL and the IC50 [2] was 9.6 µM. The EC50 (HeLa) was > 20 µg/mL and the EC50 (MCF7) was > 20 µg/mL.

For `CC(C)[C@@H](C)/C=C/[C@@H](C)[C@H]1CC[C@H]2C3=CC=C4C[C@@H](O)CC[C@]4(C)[C@H]3CC[C@]12C` [ERGOSTEROL], the IC50 [1] was 27.9 µM and the IC50 [2] was 30.6 µM.

For `COc1c(C)c(-c2c(C)c(OC)c3c(c2OC)OCO3)c(OC)c2c1OCO2`, the IC50 [1] was 15.5 µM, the EC50 (Daoy) was > 20 µg/mL and the EC50 (HEp-2) was > 20 µg/mL. For the same molecule, the EC50 (HeLa) was > 20 µg/mL and the EC50 (MCF7) was > 20 µg/mL.

For `C=C(C)C#Cc1c(C)c(OC)c(OC)c2c1OCO2` [BENZOCAMPHORIN B], the IC50 [1] was 14.4 µM.

With `C=C(CC[C@@H](C)[C@H]1CC[C@H]2C3=C(C(=O)C[C@]12C)[C@@]1(C)CCC(=O)[C@@H](C)[C@@H]1CC3)C(C)C(=O)OC` (stereo not given in full) [METHYLANTCINATE A] the IC50 [1] was 16.2 µM, the EC50 (Daoy) was > 20 µg/mL and the EC50 (HEp-2) was > 20 µg/mL. The IC50 [2] was 1.5 µM, the EC50 (HeLa) was > 20 µg/mL and the EC50 (MCF7) was > 20 µg/mL.

For `c1cc2c(cc1[C@H]1OC[C@H]3[C@@H]1CO[C@@H]3c1ccc3c(c1)OCO3)OCO2` [SESAMIN], the EC50 (Daoy) was > 20 µg/mL, the EC50 (HEp-2) was > 20 µg/mL and the EC50 (HeLa) was > 20 µg/mL. The EC50 (MCF7) was > 20 µg/mL.

In the case of `C=C(CC[C@@H](C)[C@H]1CC[C@H]2C3=C(C(=O)[C@H](O)[C@]12C)[C@@]1(C)CC[C@@H](O)[C@@H](C)[C@@H]1CC3=O)C(C)C(=O)O` (stereo not given in full) [ZHANKUIC ACID C], the EC50 (Daoy) is reported as > 20 µg/mL, the EC50 (HEp-2) is reported as > 20 µg/mL and the IC50 [2] is reported as 16.2 µM. The EC50 (HeLa) was > 20 µg/mL and the EC50 (MCF7) was > 20 µg/mL.

For `C=C(CC[C@@H](C)[C@H]1CC[C@H]2C3=C(C(=O)C[C@]12C)[C@@]1(C)CCC(=O)[C@@H](C)[C@@H]1CC3)C(C)C(=O)O` (stereo not given in full) [ANTCIN A], the IC50 [1] was 29.2 µM, the EC50 (Daoy) was 13.2 µg/mL (≈ 29 µM) and the EC50 (HEp-2) was > 20 µg/mL. For the same molecule, the IC50 [2] was 4.1 µM, the EC50 (HeLa) was > 20 µg/mL and the EC50 (MCF7) was 13.3 µg/mL (≈ 29.3 µM).

With `C=C(CC[C@@H](C)[C@H]1CC[C@H]2C3=C(C(=O)C[C@]12C)[C@@]1(C)CCC(=O)[C@@H](C)[C@@H]1CC3=O)C(C)C(=O)O` (stereo not given in full) [ZHANKUIC ACID A] the IC50 [1] was 22.1 µM, the EC50 (Daoy) was > 20 µg/mL and the EC50 (HEp-2) was 16.6 µg/mL (≈ 35.4 µM). For the same molecule, the IC50 [2] was 3.6 µM, the EC50 (HeLa) was > 20 µg/mL and the EC50 (MCF7) was > 20 µg/mL.

In the case of `C=C(CC[C@@H](C)[C@H]1CC[C@H]2C3=C(C(=O)C[C@]12C)[C@@]1(C)CC[C@@H](O)[C@@H](C)[C@@H]1CC3=O)C(C)C(=O)OC` (stereo not given in full) [CAMPHORATIN E], the EC50 (Daoy) is reported as 5.2 µg/mL (≈ 10.7 µM), the EC50 (HEp-2) is reported as 7 µg/mL (≈ 14.4 µM) and the EC50 (HeLa) is reported as 9 µg/mL (≈ 18.6 µM). For the same molecule, the EC50 (MCF7) was 6.6 µg/mL (≈ 13.6 µM).

In the case of `C=C(CC[C@@H](C)[C@H]1CC[C@H]2C3=C(C(=O)C[C@]12C)[C@@]1(C)CC[C@@H](O)[C@](C)(O)[C@@H]1C[C@@H]3O)C(C)C(=O)O` (stereo not given in full) [ANTCIN K], the IC50 [1] is reported as 47.2 µM, the EC50 (Daoy) is reported as > 20 µg/mL and the EC50 (HEp-2) is reported as > 20 µg/mL. For the same molecule, the EC50 (HeLa) was > 20 µg/mL and the EC50 (MCF7) was > 20 µg/mL.

`C[C@H](/C=C/[C@H](C)[C@H](C)CO)[C@H]1CC[C@H]2C3=CC[C@H]4CC(=O)CC[C@]4(C)[C@H]3CC[C@]12C` [CAMPHORATIN I] showed an IC50 [1] of 17.5 µM and an IC50 [2] of 12.7 µM.

For `C=C(CC[C@@H](C)[C@H]1CC[C@H]2C3=C(C[C@H](O)[C@]12C)[C@@]1(C)CC[C@@H](O)[C@@H](C)[C@@H]1CC3=O)C(C)C(=O)OC` (stereo not given in full) [METHYL ANTCINATE H], the IC50 [1] was 18.1 µM, the EC50 (Daoy) was > 20 µg/mL and the EC50 (HEp-2) was > 20 µg/mL. For the same molecule, the IC50 [2] was 2.5 µM, the EC50 (HeLa) was > 20 µg/mL and the EC50 (MCF7) was > 20 µg/mL.

In the case of `C=C(CC[C@@H](C)[C@H]1CC[C@H]2C3=C(C(=O)C[C@]12C)[C@@]1(C)CCC(=O)[C@@H](C)[C@@H]1C[C@@H]3O)C(C)C(=O)OC` (stereo not given in full) [CAMPHORATIN F], the IC50 [1] is reported as 11.2 µM, the EC50 (Daoy) is reported as 4.4 µg/mL (≈ 9.08 µM) and the EC50 (HEp-2) is reported as 3 µg/mL (≈ 6.19 µM). The IC50 [2] was 2.5 µM, the EC50 (HeLa) was 8.9 µg/mL (≈ 18.4 µM) and the EC50 (MCF7) was 7.9 µg/mL (≈ 16.3 µM).

For `C=C(CC[C@@H](C)[C@H]1CC[C@H]2C3=C(C(=O)C[C@]12C)[C@@]1(C)CCC(=O)[C@@H](C)[C@@H]1C[C@@H]3O)C(C)C(=O)O` (stereo not given in full) [CAMPHORATIN D], the IC50 [1] was 22.6 µM, the EC50 (Daoy) was > 20 µg/mL and the EC50 (HEp-2) was > 20 µg/mL. The IC50 [2] was 4.2 µM, the EC50 (HeLa) was > 20 µg/mL and the EC50 (MCF7) was > 20 µg/mL.

With `C=C(CC[C@@H](C)[C@H]1CC[C@@H]2C3=C(C(=O)C[C@@]21C)[C@@]1(C)CCC(=O)[C@@H](C)[C@@H]1CC3)C(C)C(=O)OC` (stereo not given in full) [CAMPHORATIN J] the IC50 [1] was 15.8 µM, the EC50 (Daoy) was > 20 µg/mL and the EC50 (HEp-2) was > 20 µg/mL. The IC50 [2] was 1.6 µM, the EC50 (HeLa) was 11.3 µg/mL (≈ 24.1 µM) and the EC50 (MCF7) was 8.7 µg/mL (≈ 18.6 µM).

In the case of `C=C(CC[C@@H](C)[C@H]1CC[C@H]2C3=C(C(=O)C[C@]12C)[C@@]1(C)CC[C@@H](O)[C@@H](C)[C@@H]1C[C@@H]3O)C(C)C(=O)O` (stereo not given in full) [CAMPHORATIN B], the IC50 [1] is reported as 32.1 µM and the IC50 [2] is reported as 15.7 µM.
